In ChEMBL document CHEMBL1201862, “PubChem BioAssay data set” (2004):
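Step 1: Grow cells in 96-well plates. Step 2: Expose to compound for 48 hours at 5 concentrations. Step 3: Interpolate endpoints linearly; if unreached, use highest concentration. At the GI50, growth is halved.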 The source made the active and inactive calls. No stated cut-off is given here; in the data, active = GI50 up to about 1.1 µM and inactive = higher.

Experiments:
Experiment in all cases: DTP human tumour cell line panel, 48 h
[1] = test system: SNB-75
[2] = test system: UACC-257
[3] = test system: CAKI-1
[4] = test system: LOX IMVI
[5] = test system: MOLT-4
[6] = test system: SF-295
[7] = test system: NCI-H460
[8] = test system: NCI-H226
[9] = test system: MDA-MB-435
[10] = test system: EKVX
[11] = test system: COLO 205
[12] = test system: KM12
[13] = test system: OVCAR-8
[14] = test system: U-251
[15] = test system: MCF7
[16] = test system: NCI-H522
[17] = test system: OVCAR-4
[18] = test system: T47D
[19] = test system: TK-10
[20] = test system: 786-0
[21] = test system: SR
[22] = test system: HOP-62
[23] = test system: UO-31
[24] = test system: PC-3
[25] = test system: SF-539
[26] = test system: SK-OV-3
[27] = test system: UACC-62
[28] = test system: RPMI-8226
[29] = test system: HOP-92
[30] = test system: SK-MEL-5
[31] = test system: CCRF-CEM
[32] = test system: NCI/ADR-RES
[33] = test system: HCT-116
[34] = test system: A549
[35] = test system: M14
[36] = test system: MDA-MB-231
[37] = test system: SN12C
[38] = test system: HCT-15
[39] = test system: OVCAR-5
[40] = test system: DU-145
[41] = test system: SW-620
[42] = test system: HT-29
[43] = test system: BT-549
[44] = test system: HCC 2998
[45] = test system: MDA-N
[46] = test system: OVCAR-3
[47] = test system: SK-MEL-2
[48] = test system: K562
[49] = test system: RXF 393
[50] = test system: Malme-3M
[51] = test system: SF-268
[52] = test system: NCI-H23
[53] = test system: HL-60
[54] = test system: ACHN
[55] = test system: SK-MEL-28
[56] = test system: Hs-578T
[57] = test system: SNB-19
[58] = test system: IGROV-1
[59] = test system: A498

CN(C)CCCc1cccc2[nH]c3c(c12)CN(C)CC3
GI50 [1]: 78 µM (inactive)
GI50 [2]: 80 µM (inactive)
GI50 [3]: > 100 µM (inactive)
GI50 [4]: 30.1 µM (inactive)
GI50 [5]: 75 µM (inactive)
GI50 [6]: > 100 µM (inactive)
GI50 [7]: > 100 µM (inactive)
GI50 [8]: > 100 µM (inactive)
GI50 [9]: > 100 µM (inactive)
GI50 [10]: > 100 µM (inactive)
GI50 [11]: 63.4 µM (inactive)
GI50 [12]: > 100 µM (inactive)
GI50 [13]: > 100 µM (inactive)
GI50 [14]: > 100 µM (inactive)
GI50 [15]: > 100 µM (inactive)
GI50 [16]: > 100 µM (inactive)
GI50 [17]: > 100 µM (inactive)
GI50 [18]: > 100 µM (inactive)
GI50 [19]: > 100 µM (inactive)
GI50 [20]: 92.3 µM (inactive)
GI50 [21]: 27.4 µM (inactive)
GI50 [22]: 56.5 µM (inactive)
GI50 [23]: > 100 µM (inactive)
GI50 [24]: 67.1 µM (inactive)
GI50 [25]: 28.8 µM (inactive)
GI50 [26]: > 100 µM (inactive)
GI50 [27]: > 100 µM (inactive)
GI50 [28]: > 100 µM (inactive)
GI50 [29]: > 100 µM (inactive)
GI50 [30]: > 100 µM (inactive)
GI50 [31]: 63.2 µM (inactive)
GI50 [32]: > 100 µM (inactive)
GI50 [33]: > 100 µM (inactive)
GI50 [34]: > 100 µM (inactive)
GI50 [35]: 17.3 µM (inactive)
GI50 [36]: 17.8 µM (inactive)
GI50 [37]: > 100 µM (inactive)
GI50 [38]: 80 µM
GI50 [39]: > 100 µM (inactive)
GI50 [40]: > 100 µM (inactive)
GI50 [41]: > 100 µM (inactive)
GI50 [42]: 40.1 µM (inactive)
GI50 [43]: 81.7 µM (inactive)
GI50 [44]: > 100 µM (inactive)
GI50 [45]: > 100 µM (inactive)
GI50 [46]: > 100 µM (inactive)
GI50 [47]: > 100 µM (inactive)
GI50 [48]: 76.7 µM (inactive)
GI50 [49]: 19.7 µM (inactive)
GI50 [50]: 95.9 µM (inactive)
GI50 [51]: > 100 µM (inactive)
GI50 [52]: > 100 µM (inactive)
GI50 [53]: 56.9 µM (inactive)
GI50 [54]: > 100 µM (inactive)
GI50 [55]: > 100 µM (inactive)
GI50 [56]: > 100 µM (inactive)
GI50 [57]: > 100 µM (inactive)
GI50 [58]: 73.1 µM (inactive)

O=C(CCNC(=O)OCc1ccccc1)OCCCNC(=O)OCc1ccccc1
GI50 [1]: 50.8 µM (inactive)
GI50 [2]: > 100 µM (inactive)
GI50 [4]: > 100 µM (inactive)
GI50 [5]: > 100 µM (inactive)
GI50 [6]: > 100 µM (inactive)
GI50 [7]: > 100 µM (inactive)
GI50 [8]: > 100 µM (inactive)
GI50 [9]: > 100 µM (inactive)
GI50 [11]: > 100 µM (inactive)
GI50 [12]: > 100 µM (inactive)
GI50 [13]: > 100 µM (inactive)
GI50 [14]: > 100 µM (inactive)
GI50 [15]: > 100 µM (inactive)
GI50 [16]: > 100 µM (inactive)
GI50 [17]: > 100 µM (inactive)
GI50 [18]: > 100 µM (inactive)
GI50 [19]: > 100 µM (inactive)
GI50 [20]: > 100 µM (inactive)
GI50 [21]: > 100 µM (inactive)
GI50 [22]: > 100 µM (inactive)
GI50 [23]: > 100 µM (inactive)
GI50 [24]: > 100 µM (inactive)
GI50 [25]: > 100 µM (inactive)
GI50 [26]: > 100 µM (inactive)
GI50 [27]: > 100 µM (inactive)
GI50 [28]: > 100 µM (inactive)
GI50 [29]: > 100 µM (inactive)
GI50 [30]: > 100 µM (inactive)
GI50 [31]: > 100 µM (inactive)
GI50 [32]: > 100 µM (inactive)
GI50 [33]: > 100 µM (inactive)
GI50 [34]: > 100 µM (inactive)
GI50 [35]: > 100 µM (inactive)
GI50 [36]: > 100 µM (inactive)
GI50 [37]: > 100 µM (inactive)
GI50 [38]: > 100 µM
GI50 [39]: > 100 µM (inactive)
GI50 [40]: > 100 µM (inactive)
GI50 [41]: > 100 µM (inactive)
GI50 [42]: > 100 µM (inactive)
GI50 [43]: > 100 µM (inactive)
GI50 [44]: > 100 µM (inactive)
GI50 [45]: > 100 µM (inactive)
GI50 [46]: > 100 µM (inactive)
GI50 [48]: > 100 µM (inactive)
GI50 [49]: > 100 µM (inactive)
GI50 [50]: > 100 µM (inactive)
GI50 [51]: > 100 µM (inactive)
GI50 [52]: > 100 µM (inactive)
GI50 [53]: > 100 µM (inactive)
GI50 [54]: > 100 µM (inactive)
GI50 [55]: > 100 µM (inactive)
GI50 [56]: > 100 µM (inactive)
GI50 [57]: > 100 µM (inactive)
GI50 [58]: > 100 µM (inactive)

O=c1cc(-c2ccc(O)cc2)oc2cc(O[C@@H]3O[C@H](CO)[C@@H](O)[C@H](O)[C@H]3O)cc(O)c12 [APIGETRIN]
GI50 [1]: 40.8 µM (inactive)
GI50 [2]: > 100 µM (inactive)
GI50 [3]: 0.239 µM (active)
GI50 [4]: 33.1 µM (inactive)
GI50 [5]: 32.5 µM (inactive)
GI50 [6]: 62.8 µM (inactive)
GI50 [7]: 34.2 µM (inactive)
GI50 [8]: 26.7 µM (inactive)
GI50 [9]: 71.6 µM (inactive)
GI50 [10]: > 100 µM (inactive)
GI50 [59]: 67.1 µM (inactive)
GI50 [11]: > 100 µM (inactive)
GI50 [12]: 13.9 µM (inactive)
GI50 [13]: 31.7 µM (inactive)
GI50 [14]: 71 µM (inactive)
GI50 [15]: > 100 µM (inactive)
GI50 [16]: 31.1 µM (inactive)
GI50 [17]: 28.2 µM (inactive)
GI50 [18]: 81.7 µM (inactive)
GI50 [19]: > 100 µM (inactive)
GI50 [20]: > 100 µM (inactive)
GI50 [21]: 0.0752 µM (active)
GI50 [22]: > 100 µM (inactive)
GI50 [23]: 43.2 µM (inactive)
GI50 [24]: 33.2 µM (inactive)
GI50 [25]: 48.5 µM (inactive)
GI50 [26]: > 100 µM (inactive)
GI50 [27]: 43.3 µM (inactive)
GI50 [28]: > 100 µM (inactive)
GI50 [29]: 83.9 µM (inactive)
GI50 [30]: 46 µM (inactive)
GI50 [31]: 75.9 µM (inactive)
GI50 [32]: 42 µM (inactive)
GI50 [33]: 33.4 µM (inactive)
GI50 [34]: 51.3 µM (inactive)
GI50 [35]: > 100 µM (inactive)
GI50 [36]: 86.1 µM (inactive)
GI50 [37]: > 100 µM (inactive)
GI50 [38]: 16.6 µM
GI50 [39]: > 100 µM (inactive)
GI50 [40]: 58.3 µM (inactive)
GI50 [41]: 72.9 µM (inactive)
GI50 [42]: 53 µM (inactive)
GI50 [43]: 24.4 µM (inactive)
GI50 [44]: 36.1 µM (inactive)
GI50 [45]: 46 µM (inactive)
GI50 [46]: > 100 µM (inactive)
GI50 [47]: 61.5 µM (inactive)
GI50 [48]: 77.8 µM (inactive)
GI50 [51]: 51.3 µM (inactive)
GI50 [52]: 50.8 µM (inactive)
GI50 [53]: 80.5 µM (inactive)
GI50 [54]: 26.2 µM (inactive)
GI50 [55]: 98.4 µM (inactive)
GI50 [56]: 40 µM (inactive)
GI50 [57]: 39.4 µM (inactive)
GI50 [58]: 57.9 µM (inactive)
